Test results: patent publication US7005537B2, “Production of esters” (ExxonMobil Chemical Patents Inc., priority 1999, dated 2006)

Legend:
Type in all cases: physicochemical
Fluid solvent properties = assay: Fluid solvent properties
Source text: One of ordinary skill in the art can readily determine the flash point of a fluid or blend (e.g., ASTM D92-78).

Reid Vapor Pressure = assay: Reid Vapor Pressure
Source text: The invention also includes producing a gasoline fuel containing an ester for use in internal combustion engines, wherein the ester has a Reid Vapor Pressure less than about 4 pounds per square inch. An important factor in determining a compound's ozone formation potential includes the compound's vapor pressure. Compounds with relatively high vapor pressures are more likely to volatilize into the atmosphere from open sources. Potential open sources include, for example, sources from production, distribution, storage and/or combustion of fuels containing oxygenates. The C7 to C14 esters according to the invention are expected to have low vapor pressures in comparison to MTBE and some other oxygenates. Preferably, the esters have a RVP less than about 3.5 psi. More preferably, less than about 3.0 or 2.0 psi. For example, Methyl Pivalate has a Reid Vapor Pressure of about 1.6 psi.

[1] = Stability of solvent to acid catalyst (pTSA) in acrylic solvent system, GC; conditions: for Wt. % of Solvent At One Week Decomposition Period / Wt. % of Solvent At Three Week Decomposition Period: 0.5 wt % pTSA, 50° C., nitrogen, 100 at start of test
Method: Acrylic solvent systems were prepared to test the stability of methyl pivalate to acid catalysts, which are commonly present in coating compositions. The formulations contained 29.9 wt % MP, 28.7 wt % pentyl acetate, 20.2 wt % n-butyl acetate, 16.1 wt % n-butyl alcohol, 3.6 wt % methyl ethyl ketone, 1.5 wt % isopropyl alcohol. 2 wt % toluene as an internal standard. The latter materials were purchased from Aldrich Chemical Co.
Para toluene sulfonic acid (pTSA) was added to the above formulation (again, pTSA was purchased from Aldrich Chemical Co.), in the amount of 0.5 wt %. The solutions were sealed and placed in an oven at 50° C. under a nitrogen atmosphere. Samples were withdrawn at intervals for testing. The content of methyl pivalate was monitored over time by gas chromatographic analysis using an HP 5890 gas chromatograph. In a parallel experiment an equal amount of tert butyl acetate was used instead of methyl pivalate. The results are shown below in Table 7 (all percentages are by weight).

Row | Compound | Hansen Solubility Parameter H-Bonding (Fluid solvent properties) | Hansen Solubility Parameter Nonpolar (Fluid solvent properties) | Hansen Solubility Parameter Polar (Fluid solvent properties) | Hansen Solubility Parameter Total (Fluid solvent properties) | Surface Tension (Fluid solvent properties) | Flash Point (Fluid solvent properties) [°C] | Reid Vapor Pressure (Reid Vapor Pressure) | stability to acid catalysts (in words) [1] | Wt. % of Solvent At One Week Decomposition Period [1] [Wt. %] | Wt. % of Solvent At Three Week Decomposition Period [1] [Wt. %]
1 | CC(C)=O [Acetone] | 3.4 | 7.6 | 5.1 | 9.2 | 22.3 | – | – | – | – | –
2 | COC(=O)C(C)(C)C [Methyl Pivalate, methyl pivalate (methyl 1,1,1-trimethyl acetate)] | – | – | – | – | 23.8 | 7 | about 1.6 psi | more stable to acid catalysts than is t-butyl acetate | 88.0 | 65.1
3 | CC(=O)OC(C)(C)C [t-butyl acetate, tertiary butyl acetate] | – | – | – | – | – | – | – | not inert with respect to acids | 65.9 | 24.1
